In one assay the target is binding of tPA and PAI-1 (Homo sapiens, UniProt P05121). Briefly: Inhibition of tPA/PAI-1 complex formation (SDS-PAGE, silver staining, densitometry). The following applies: recombinant PAI-1 + IMD-4690 in PBS 37°C 5 min, then tPA 37°C 5 min; tPA/PAI-1 complex band densitometry. The protocol:
Fig 1 Schedule of in vivo experiments and biological activity of IMD-4690. (A) Protocols for the mouse experiments. (B) Inhibitory effects of IMD-4690 on the binding of tPA and PAI-1. The recombinant PAI-1 and IMD-4690 were mixed and incubated in PBS at 37°C for 5 min. Then tPA was added. After incubation at 37°C for 5 min, samples were applied for 10% SDS-PAGE and visualized with a silver staining. The bands of tPA/PAI-1 complex were quantified by a densitometry, and calculated IC50.
A synthetic PAI-1 inhibitor, IMD-4690, 2-[[3-(4-tert-Butylphenoxy)-4'- (trifluoromethoxy) [1,1'-biphenyl]-4-yl]oxy] acetic acid, was molecularly designed, synthesized. IMD-4690 inhibited the binding of tPA and PAI-1 at the IC50 of 8 μM (Fig. 1B).

Assay [1] relates to chronic allergen exposure model of bronchial asthma in mice. Briefly: Lung histopathology and morphological analyses, chronic Dp asthma model. It counts as in vivo, mouse. The procedure: (§1) All mice were sensitized on days 0 and 7 by intraperitoneal injections of 10 μg of Dp dissolved in 500 μL saline and mixed with 1mg of Alum (Sigma-Aldrich Japan). Dp-sensitized mice were challenged intranasally with 10 μg (10 μL) Dp in 70 μL saline on alternate days, 3 days per week, from days 14 to 67. The mice were also treated intraperitoneally with IMD-4690 (10 mg/kg) (Dp/IMD group) or CMC alone (Dp/CMC group) at the same day with Dp challenge. As a control, mice were challenged with saline and given CMC during this period (control/CMC group) (Fig. 1A). Each experiment was performed using six mice per group.
The lung tissues were harvested, fixed in 10% formalin, and embedded in paraffin. Three-micrometer-thick sections were stained with Giemsa, Periodic acid-Schiff (PAS) or Azan Mallory.
Sections of lung tissue were stained immunohistochemically to detect α-smooth muscle actin (SMA), platelet endothelial cell adhesion molecule-1 (PECAM-1)/CD31. Mouse monoclonal anti-smooth muscle (1:800) (Thermo Fisher Scientific Inc., Fremont, CA, USA), or ready-to-use mouse monoclonal CD31 (GeneTex Inc., Irvine, CA, USA) was used as a primary antibody. For immunohistochemical staining, the VECTASTAIN ABC Kit (Vector Laboratories) and the Vector M.O.M. Immunodetection Kit (Vector Laboratories) were used according to the manufacturers’ protocols. Diaminobenzidine was used as a substrate for the immunoperoxidase reaction. Sections were lightly counterstained with hematoxylin and analyzed by bright-field microscopy.
An OLYMPUS BX61 microscope (Olympus, Tokyo, Japan) with Scion Image software was used for the morphological analysis. Eosinophils were counted according to a previously described method. The thickness of subepithelial fibrosis and smooth muscle layer were analyzed as follows. The area of subepithelial fibrosis (stained blue) and smooth muscle layer (α-SMA positive) around a bronchus was measured. The average thickness was determined by the area of the positive layer divided by the length of the internal circumference of the area. The mean values for thickness were calculated for 8–10 bronchi per left lung lobe.
To quantify the microvessel density, the number of CD31-positive blood vessels per field was counted in 5 random fields in each sample.

Assay [2] shares this test system. The assay can be described thus: Mediators in lung homogenates (ELISA/activity kits), chronic Dp exposure asthma model. Type of assay: in vivo, mouse. The procedure:
as §1
The right lungs were frozen until analyzed. Frozen tissue were solubilized by homogenization in lysis buffer (Cell Signaling Technology, Inc., Danvers, Mass., USA) containing 1 tablet of Complete Protease Inhibitor Cocktail Tablets, EDTA-free (Santa Cruz Biotechnology, Inc., Santa Cruz, CA, USA), per 25 mL of buffer by using an Ultramicro homogenizer set (I.S.O.,Inc., Yokohama, Japan). Samples of the homogenate were centrifuged at 15,000 rpm for 10 min. The supernatants were stored at -80°C.
Protein concentrations were determined by the BCA method (Pierce, Rockford, IL, USA). Cytokines, growth factors, enzymes, and serum IgE were determined using commercial ELISA kits. ELISA kits and their sensitivities were as follows: IL-4, -5, -12, -13, TNF-α, IFN-γ, VEGF, TGF-β, total MMP-9, and TIMP-1 (R&D Systems, Minneapolis, MN, USA), with sensitivities of 2, 7, 2.5, 1.5, 5.1, 2, 3, 1.7, 7, and 1.4 pg/mL, respectively; active and total PAI-1 (Innovative Research Inc., Sarasota, FL, USA) with sensitivities of 20 and 32 pg/mL; active MMP-9 (MMP-9 Biotrak Activity Assay, GE Healthcare, Buckinghamshire, UK) with a sensitivity of 0.5 ng/mL; HGF (Rat HGF determination kit by EIA, Institute of Immunology Co., Ltd., Tokyo, Japan) with a sensitivity of 0.4 ng/mL; and serum IgE (ELISA mouse IgE kit, Seikagaku Biobussiness Corp., Tokyo, Japan) with a sensitivity of 0.5 ng/mL.
(In general: An ELISA detects its analyte on a solid surface through an enzyme-linked reagent.)

For assay [3] the test system is unchanged. The assay can be described thus: Total lung collagen (Sircol assay), chronic Dp asthma model. Type of assay: in vivo, mouse. The following applies: day 70, 10 mg/kg i.p., vs Dp/CMC mice. The protocol: as §1
The left lungs were harvested on day 70 and used for collagen assays. Total lung collagen was determined using a Sircol Collagen Assay kit (Biocolor Ltd, Belfast, Northern Ireland) according to the manufacturer’s instructions.

Assay [4] shares this test system. Briefly: Serum IgE (ELISA), chronic Dp asthma model. Type of assay: in vivo, mouse. As to conditions: 10 mg/kg i.p., vs Dp/CMC mice. The protocol:
as §1
Protein concentrations were determined by the BCA method (Pierce, Rockford, IL, USA). Cytokines, growth factors, enzymes, and serum IgE were determined using commercial ELISA kits. […]

Another assay deals with human PAI-1 (Homo sapiens, UniProt P05121). The assay can be described thus: Direct tPA assay of PAI-1 activity (fluorescent substrate Pyr-Gly-Arg-MCA). The following applies: recombinant tPA and PAI-1, read-out: IC50 of human PAI-1 inhibition. Type of assay: biochemical. The protocol:
Inhibitory effect of IMD-4690 on the activity of PAI-1 was measured by the direct tPA assay. Briefly, recombinant tPA and PAI-1 was mixed with IMD-4690, and then tPA substrate with fluorescent pigment (Pyr-Gly-Arg-MCA) was added in this mixture and incubated. The enzymatic activity was calculated by measuring the fluorescence. The inhibitory activity of IMD-4690 on other enzymes was measured with the similar method.

[5] abbreviates: BALB/c mice, Dp challenge 8 weeks, 10 mg/kg i.p., vs Dp/CMC mice.
Setting [6] is: Dp/IMD mice (10 mg/kg i.p.) vs Dp/CMC mice.
Where [7] appears, read: ELISA, 10 mg/kg i.p., vs Dp/CMC mice.

SMILES strings stand for the structures.

Sequence of binding of tPA and PAI-1 (P05121 24-402): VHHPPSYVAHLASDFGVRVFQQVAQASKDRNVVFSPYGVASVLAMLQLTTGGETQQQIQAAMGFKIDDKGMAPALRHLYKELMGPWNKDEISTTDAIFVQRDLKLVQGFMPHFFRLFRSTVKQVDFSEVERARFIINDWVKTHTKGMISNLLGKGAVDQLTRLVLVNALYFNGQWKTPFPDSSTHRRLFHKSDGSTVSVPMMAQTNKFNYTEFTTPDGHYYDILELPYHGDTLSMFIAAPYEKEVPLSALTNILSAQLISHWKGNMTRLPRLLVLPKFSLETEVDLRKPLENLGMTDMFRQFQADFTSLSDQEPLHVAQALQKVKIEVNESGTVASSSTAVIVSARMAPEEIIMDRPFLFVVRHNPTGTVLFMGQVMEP
Sequence of human PAI-1 (P05121 24-402): as above

The IC50 is the point on the concentration scale where inhibition reaches its midpoint. For the compound `CC(C)(C)c1ccc(Oc2cc(-c3ccc(OC(F)(F)F)cc3)ccc2OCC(=O)O)cc1` [IMD-4690, 2-[[3-(4-tert-Butylphenoxy)-4'-(trifluoromethoxy) [1,1'-biphenyl]-4-yl]oxy] acetic acid], the IC50 at binding of tPA and PAI-1 was 8 µM. Further, the “Subepithelial thickness (subepithelial fibrosis)” value in assay [1] (Azan-Mallory sections, Dp/IMD mice 10 mg/kg i.p.) is listed as “significantly decreased”. Also, the “Vascular density (CD31-positive blood vessels)” value in assay [1] (CD31 immunohistochemistry, 10 mg/kg i.p.) was “significantly decreased”. Further, the “Number of infiltrating eosinophils in the subepithelium” value in assay [1] (Giemsa-stained lung sections, 10 mg/kg i.p., vs Dp/CMC mice) was “significantly decreased”. Further, the “Number of PAS-positive cells (mucous metaplasia)” value in assay [1] (PAS staining of lungs, 10 mg/kg i.p., vs Dp/CMC mice) is given as “decreased”. Besides, the “Subepithelial smooth muscle thickness” value in assay [1] (α-SMA immunohistochemistry, 10 mg/kg i.p.) is “significant reduction”. In assay [2] (10 mg/kg i.p., vs Dp/CMC mice), the “IFN-γ production in lung homogenates” value is given as “inhibited”, the “IL-4 level in lung homogenates” value is recorded as “significantly decreased”, the “IL-5 level in lung homogenates” value is listed as “significantly decreased” and the “IL-13 level in lung homogenates” value is “significantly decreased”. For the same compound, in assay [2] (10 mg/kg i.p., vs Dp/CMC mice), the “Ratio of active MMP-9/TIMP-1 in lung homogenates” value is recorded as “significantly restored” and the “TNF-α production in lung homogenates” value was “inhibited”. In assay [2] (setting [5]), the “Level of active PAI-1 in lung homogenates” value is listed as “significantly reduced” and the “Level of total PAI-1 in lung homogenates” value is listed as “significantly reduced”. Moreover, in assay [2] (setting [6]), the “HGF levels in lung homogenates” value is recorded as “significantly higher” and the “Proportion of active PAI-1 as a percentage of the total PAI-1 in lung homogenates” value is given as “significantly lower”. Also, in assay [2] (setting [7]), the “Active form of TGF-β1 in lung homogenates” value is “significantly reduced”; the “Total MMP-9 levels in lung homogenates” value is listed as “tended to decrease the total MMP-9 levels, although no significant differences were observed”; the “VEGF concentration in lung homogenates and BALF” value is on record as “significantly reduced”. In addition, the “Total collagen in the lungs” value in assay [3] is on record as “reduced”. For the same compound, the “Serum IgE” value in assay [4] is reported as “significantly decreased”. The half-maximal inhibitory concentration (IC50) on human PAI-1 came to 1.1 µM.

These data come from PMC4364779, “IMD-4690, a Novel Specific Inhibitor for Plasminogen Activator Inhibitor-1, Reduces Allergic Airway Remodeling in a Mouse Model of Chronic Asthma via Regulating Angiogenesis and Remodeling-Related Mediators” (PLoS ONE, 2015).
